Molecular target: recombinant human integrin αVβ6 (Homo sapiens (Human), UniProt P06756+P18564)
Assay: Solid phase integrin αVβ6 binding assay
Settings: inhibition of recombinant TGFβ1 LAP binding to coated integrin, IC50 presented in four ranges, read-out: αvβ6 Inhibition IC50 (nM) - range
Procedure: (§1) Microplates were coated with recombinant human integrin αVβ6 (2 μg/mL) in PBS (100 μL/well 25° C., overnight). The coating solution was removed, washed with wash buffer (0.05% Tween 20; 0.5 mM MnCl2; in 1×TBS). The plate was blocked with 200 μL/well of Block Buffer (1% BSA; 5% sucrose; 0.5 mM MnCl2; in 1×TBS) at 37° C. for 2 h. Dilutions of testing compounds and recombinant TGFβ1 LAP (0.67 μg/mL) in binding buffer (0.05% BSA; 2.5% sucrose; 0.5 mM MnCl2; in 1×TBS) were added. The plate was incubated for 2 hours at 25° C., washed, and incubated for 1 hour with Biotin-Anti-hLAP. Bound antibody was detected by peroxidase-conjugated streptavidin. The IC50 values for testing compounds were calculated by a four-parameter logistic regression.
The compounds tested were compound samples prepared according to procedures described in the Synthetic Examples section, with the stereochemical purity as indicated in the Examples.
as §1, with “A third series of exemplary compounds was selected for testing in the solid phase integrin αVβ6 binding assay. The compounds tested were compound samples prepared according to procedures described in the Synthetic Examples section, with the stereochemical purity as indicated in the Examples. As in Example B1, microplates were” for “Microplates were”, “(0.67 g/mL)” for “(0.67 μg/mL)”

Sequence of recombinant human integrin αVβ6 (P06756 31-992): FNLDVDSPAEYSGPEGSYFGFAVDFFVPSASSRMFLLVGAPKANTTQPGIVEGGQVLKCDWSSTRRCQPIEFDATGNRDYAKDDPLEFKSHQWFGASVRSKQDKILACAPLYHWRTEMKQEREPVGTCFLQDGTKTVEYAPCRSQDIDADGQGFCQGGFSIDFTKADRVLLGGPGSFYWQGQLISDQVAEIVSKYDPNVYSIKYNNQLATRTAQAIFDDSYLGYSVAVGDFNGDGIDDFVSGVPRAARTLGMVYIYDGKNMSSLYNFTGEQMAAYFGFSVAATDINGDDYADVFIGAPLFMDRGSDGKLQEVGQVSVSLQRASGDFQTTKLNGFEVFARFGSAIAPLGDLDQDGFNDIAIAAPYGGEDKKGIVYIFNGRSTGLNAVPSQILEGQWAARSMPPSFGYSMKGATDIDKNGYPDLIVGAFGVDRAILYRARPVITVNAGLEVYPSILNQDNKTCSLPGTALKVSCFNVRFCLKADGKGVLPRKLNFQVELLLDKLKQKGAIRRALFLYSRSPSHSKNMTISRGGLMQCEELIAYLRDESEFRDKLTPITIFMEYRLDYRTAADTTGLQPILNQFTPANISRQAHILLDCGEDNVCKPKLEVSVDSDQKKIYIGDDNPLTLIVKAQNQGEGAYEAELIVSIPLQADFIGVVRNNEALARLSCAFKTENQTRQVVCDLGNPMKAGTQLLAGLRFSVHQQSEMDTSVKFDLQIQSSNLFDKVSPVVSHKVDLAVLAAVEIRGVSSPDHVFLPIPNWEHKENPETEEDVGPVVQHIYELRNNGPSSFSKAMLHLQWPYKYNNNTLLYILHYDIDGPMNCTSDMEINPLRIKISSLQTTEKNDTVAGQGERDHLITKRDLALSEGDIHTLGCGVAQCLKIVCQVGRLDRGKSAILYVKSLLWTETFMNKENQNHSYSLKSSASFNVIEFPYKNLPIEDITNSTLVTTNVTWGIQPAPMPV
Sequence of recombinant human integrin αVβ6 (P18564 22-707): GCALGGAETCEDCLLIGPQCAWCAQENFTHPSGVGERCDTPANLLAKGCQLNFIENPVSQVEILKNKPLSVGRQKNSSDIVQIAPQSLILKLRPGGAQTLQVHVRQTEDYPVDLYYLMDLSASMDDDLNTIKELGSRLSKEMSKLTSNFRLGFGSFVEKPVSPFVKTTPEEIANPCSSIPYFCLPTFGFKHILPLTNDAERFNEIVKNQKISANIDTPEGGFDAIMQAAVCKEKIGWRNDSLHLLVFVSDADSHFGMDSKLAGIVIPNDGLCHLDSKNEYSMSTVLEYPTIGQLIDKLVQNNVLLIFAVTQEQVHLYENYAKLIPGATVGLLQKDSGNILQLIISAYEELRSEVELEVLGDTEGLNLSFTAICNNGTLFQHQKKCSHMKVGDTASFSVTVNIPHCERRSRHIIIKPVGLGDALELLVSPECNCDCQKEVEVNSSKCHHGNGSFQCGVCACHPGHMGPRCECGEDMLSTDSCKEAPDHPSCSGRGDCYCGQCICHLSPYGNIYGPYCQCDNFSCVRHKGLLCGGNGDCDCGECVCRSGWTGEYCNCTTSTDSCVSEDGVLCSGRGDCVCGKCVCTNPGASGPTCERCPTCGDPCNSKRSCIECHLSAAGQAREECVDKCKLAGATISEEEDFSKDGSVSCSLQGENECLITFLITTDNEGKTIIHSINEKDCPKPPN

SMILES | IC50
O=C(O)[C@H](CCN(CCCCc1ccc2c(n1)NCCC2)C1CC1)Nc1cc(C(F)F)ncn1 [Compound 1, (S)-4-(cyclopropyl(4-(5,6,7,8-tetrahydro-1,8-naphthyridin-2-yl)butyl)amino)-2-((6-(difluoromethyl)pyrimidin-4-yl)amino) butanoic Acid] | 250 to 1000 nM
CC(C)(O)CN(CCCCc1ccc2c(n1)NCCC2)CC[C@H](Nc1ccncn1)C(=O)O [Compound 4, (S)-4-((2-hydroxy-2-methylpropyl) (4-(5,6,7,8-tetrahydro-1,8-naphthyridin-2-yl)butyl)amino)-2-(pyrimidin-4-ylamino) butanoic Acid] | 50 to 250 nM
COCCN(CCCCc1ccc2c(n1)NCCC2)CC[C@H](Nc1ncnc2ccccc12)C(=O)O [Compound 5, (S)-4-((2-methoxyethyl) (4-(5,6,7,8-tetrahydro-1,8-naphthyridin-2-yl)butyl)amino)-2-(quinazolin-4-ylamino) butanoic Acid] | < 50 nM
O=C(O)[C@H](CCN(CCCCc1ccc2c(n1)NCCC2)C1CC1)Nc1ncnc2ccccc12 [Compound 6, (S)-4-(cyclopropyl(4-(5,6,7,8-tetrahydro-1,8-naphthyridin-2-yl)butyl)amino)-2-(quinazolin-4-ylamino) butanoic Acid] | 50 to 250 nM
COCCN(CCCCc1ccc2c(n1)NCCC2)CC[C@H](Nc1ncnc2cc(F)ccc12)C(=O)O [Compound 7, (S)-2-((7-fluoroquinazolin-4-yl)amino)-4-((2-methoxyethyl) (4-(5,6,7,8-tetrahydro-1,8-naphthyridin-2-yl)butyl)amino) butanoic Acid] | < 50 nM
O=C(O)[C@H](CCN(CCCCc1ccc2c(n1)NCCC2)CC(F)F)Nc1ncnc2ccccc12 [Compound 8, (S)-4-((2,2-difluoroethyl) (4-(5,6,7,8-tetrahydro-1,8-naphthyridin-2-yl)butyl)amino)-2-(quinazolin-4-ylamino) butanoic Acid] | 50 to 250 nM
O=C(O)[C@H](CCN(CCCCc1ccc2c(n1)NCCC2)C1CC(F)(F)C1)Nc1ncnc2ccccc12 [Compound 9, (S)-4-((3,3-difluorocyclobutyl) (4-(5,6,7,8-tetrahydro-1,8-naphthyridin-2-yl)butyl)amino)-2-(quinazolin-4-ylamino) butanoic Acid] | > 1000 nM
COCCN(CCCCc1ccc2c(n1)NCCC2)CC[C@H](Nc1nc(C)nc2ccccc12)C(=O)O [Compound 10, (S)-4-((2-methoxyethyl) (4-(5,6,7,8-tetrahydro-1,8-naphthyridin-2-yl)butyl)amino)-2-((2-methylquinazolin-4-yl)amino) butanoic Acid] | < 50 nM
COCCN(CCCCc1ccc2c(n1)NCCC2)CC[C@H](Nc1ncnc2ncccc12)C(=O)O [Compound 11, (S)-4-((2-methoxyethyl) (4-(5,6,7,8-tetrahydro-1,8-naphthyridin-2-yl)butyl)amino)-2-(pyrido[2,3-d]pyrimidin-4-ylamino) butanoic Acid] | < 50 nM
COCCN(CCCCc1ccc2c(n1)NCCC2)CC[C@H](Nc1nc(C)nc2cc(F)ccc12)C(=O)O [Compound 12, (S)-2-((7-fluoro-2-methylquinazolin-4-yl)amino)-4-((2-methoxyethyl) (4-(5,6,7,8-tetrahydro-1,8-naphthyridin-2-yl)butyl)amino) butanoic Acid] | < 50 nM
COCCN(CCCCc1ccc2c(n1)NCCC2)CC[C@H](Nc1ncnc2cc(C(F)(F)F)ccc12)C(=O)O [Compound 13, (S)-4-((2-methoxyethyl) (4-(5,6,7,8-tetrahydro-1,8-naphthyridin-2-yl)butyl)amino)-2-((7-(trifluoromethyl)quinazolin-4-yl)amino) butanoic Acid] | 50 to 250 nM
COCCN(CCCCc1ccc2c(n1)NCCC2)CC[C@H](Nc1nc(C(F)(F)F)nc2ccccc12)C(=O)O [Compound 14, (S)-4-((2-methoxyethyl) (4-(5,6,7,8-tetrahydro-1,8-naphthyridin-2-yl)butyl)amino)-2-((2-(trifluoromethyl)quinazolin-4-yl)amino) butanoic Acid] | < 50 nM
COCCN(CCCCc1ccc2c(n1)NCCC2)CC[C@H](Nc1ncnc2c(C(F)(F)F)cccc12)C(=O)O [Compound 15, (S)-4-((2-methoxyethyl) (4-(5,6,7,8-tetrahydro-1,8-naphthyridin-2-yl)butyl)amino)-2-((8-(trifluoromethyl)quinazolin-4-yl)amino) butanoic Acid] | < 50 nM
COCCN(CCCCc1ccc2c(n1)NCCC2)CC[C@H](Nc1ncnc2cccnc12)C(=O)O [Compound 16, (S)-4-((2-methoxyethyl) (4-(5,6,7,8-tetrahydro-1,8-naphthyridin-2-yl)butyl)amino)-2-(pyrido[3,2-d]pyrimidin-4-ylamino) butanoic Acid] | < 50 nM
COCCN(CCCCc1ccc2c(n1)NCCC2)CC[C@H](Nc1ncnc2cnccc12)C(=O)O [Compound 17, (S)-4-((2-methoxyethyl) (4-(5,6,7,8-tetrahydro-1,8-naphthyridin-2-yl)butyl)amino)-2-(pyrido[3,4-d]pyrimidin-4-ylamino) butanoic Acid] | < 50 nM
COCCN(CCCCc1ccc2c(n1)NCCC2)CC[C@H](Nc1ncnc2cccc(F)c12)C(=O)O [Compound 18, (S)-2-((5-fluoroquinazolin-4-yl)amino)-4-((2-methoxyethyl) (4-(5,6,7,8-tetrahydro-1,8-naphthyridin-2-yl)butyl)amino) butanoic Acid] | < 50 nM
COCCN(CCCCc1ccc2c(n1)NCCC2)CC[C@H](Nc1ncnc2ccc(F)cc12)C(=O)O [Compound 19, (S)-2-((6-fluoroquinazolin-4-yl)amino)-4-((2-methoxyethyl) (4-(5,6,7,8-tetrahydro-1,8-naphthyridin-2-yl)butyl)amino) butanoic Acid] | < 50 nM
COCCN(CCCCc1ccc2c(n1)NCCC2)CC[C@H](Nc1ncnc2c(F)cccc12)C(=O)O [Compound 20, (S)-2-((8-fluoroquinazolin-4-yl)amino)-4-((2-methoxyethyl) (4-(5,6,7,8-tetrahydro-1,8-naphthyridin-2-yl)butyl)amino) butanoic Acid] | < 50 nM
COCCN(CCCCc1ccc2c(n1)NCCC2)CC[C@H](Nc1ncnc2cc(F)c(F)cc12)C(=O)O [Compound 21, (S)-2-((6,7-difluoroquinazolin-4-yl)amino)-4-((2-methoxyethyl) (4-(5,6,7,8-tetrahydro-1,8-naphthyridin-2-yl)butyl)amino) butanoic Acid] | < 50 nM
COCCN(CCCCc1ccc2c(n1)NCCC2)CC[C@H](Nc1cc(C(F)(F)F)nc(C)n1)C(=O)O [Compound 22, (S)-4-((2-methoxyethyl) (4-(5,6,7,8-tetrahydro-1,8-naphthyridin-2-yl)butyl)amino)-2-((2-methyl-6-(trifluoromethyl)pyrimidin-4-yl)amino) butanoic Acid] | < 50 nM
COCCN(CCCCc1ccc2c(n1)NCCC2)CC[C@H](Nc1cc(C(F)F)ncn1)C(=O)O [Compound 23, (S)-2-((6-(difluoromethyl)pyrimidin-4-yl)amino)-4-((2-methoxyethyl) (4-(5,6,7,8-tetrahydro-1,8-naphthyridin-2-yl)butyl)amino) butanoic Acid] | < 50 nM

Source: patent US10793564B2, “Amino acid compounds and methods of use” (Pliant Therapeutics, Inc., priority 2018, dated 2020)
